Data on ten compounds can be found in patent publication US10793564B2, “Amino acid compounds and methods of use” (Pliant Therapeutics, Inc., priority 2018, dated 2020).

Sequence of recombinant human integrin αVβ6 (P06756 31-992): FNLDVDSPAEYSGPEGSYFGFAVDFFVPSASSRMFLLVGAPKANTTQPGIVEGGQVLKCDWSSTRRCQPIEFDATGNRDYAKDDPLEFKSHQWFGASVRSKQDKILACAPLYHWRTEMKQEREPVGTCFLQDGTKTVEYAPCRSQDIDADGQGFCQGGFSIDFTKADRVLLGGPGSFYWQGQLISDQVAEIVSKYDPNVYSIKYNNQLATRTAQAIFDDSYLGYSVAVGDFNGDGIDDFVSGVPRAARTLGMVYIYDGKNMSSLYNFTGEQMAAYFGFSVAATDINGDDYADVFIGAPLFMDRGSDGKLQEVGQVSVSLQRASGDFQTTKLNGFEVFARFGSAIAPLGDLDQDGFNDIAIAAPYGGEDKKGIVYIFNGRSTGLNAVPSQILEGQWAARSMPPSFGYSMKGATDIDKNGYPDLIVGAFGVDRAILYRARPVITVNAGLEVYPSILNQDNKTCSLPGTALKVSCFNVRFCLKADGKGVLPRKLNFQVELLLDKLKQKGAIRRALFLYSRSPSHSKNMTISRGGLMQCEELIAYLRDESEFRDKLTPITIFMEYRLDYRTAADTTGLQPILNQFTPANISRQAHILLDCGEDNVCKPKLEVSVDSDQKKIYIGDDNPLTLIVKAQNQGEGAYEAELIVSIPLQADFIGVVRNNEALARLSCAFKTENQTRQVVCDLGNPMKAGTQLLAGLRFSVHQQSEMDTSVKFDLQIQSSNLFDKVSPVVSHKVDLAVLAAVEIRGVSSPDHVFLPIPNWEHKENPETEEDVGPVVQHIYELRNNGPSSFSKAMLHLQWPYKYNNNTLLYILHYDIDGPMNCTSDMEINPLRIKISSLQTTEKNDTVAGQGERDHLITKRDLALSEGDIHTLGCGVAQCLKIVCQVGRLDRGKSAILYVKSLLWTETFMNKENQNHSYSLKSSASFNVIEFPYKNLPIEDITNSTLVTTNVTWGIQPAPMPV
Sequence of recombinant human integrin αVβ6 (P18564 22-707): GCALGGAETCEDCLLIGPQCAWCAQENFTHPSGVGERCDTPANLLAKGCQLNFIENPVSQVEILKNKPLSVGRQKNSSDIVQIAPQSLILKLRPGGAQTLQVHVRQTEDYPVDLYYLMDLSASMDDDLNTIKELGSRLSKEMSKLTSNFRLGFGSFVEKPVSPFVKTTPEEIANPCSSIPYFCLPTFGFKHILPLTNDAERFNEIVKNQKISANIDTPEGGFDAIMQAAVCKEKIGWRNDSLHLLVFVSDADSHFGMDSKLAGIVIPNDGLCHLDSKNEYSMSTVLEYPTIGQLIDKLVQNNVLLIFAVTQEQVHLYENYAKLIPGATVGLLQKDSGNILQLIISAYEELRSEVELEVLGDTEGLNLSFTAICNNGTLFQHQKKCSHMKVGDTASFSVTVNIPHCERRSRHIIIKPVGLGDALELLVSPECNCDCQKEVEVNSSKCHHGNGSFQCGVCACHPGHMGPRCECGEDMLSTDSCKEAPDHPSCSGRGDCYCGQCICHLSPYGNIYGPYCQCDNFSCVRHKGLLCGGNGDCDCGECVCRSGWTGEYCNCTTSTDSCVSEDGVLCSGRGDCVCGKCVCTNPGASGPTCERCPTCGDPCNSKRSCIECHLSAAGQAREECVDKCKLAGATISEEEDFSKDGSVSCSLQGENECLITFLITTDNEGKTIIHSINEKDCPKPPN

This assay deals with recombinant human integrin αVβ6 (Homo sapiens (Human), UniProt P06756+P18564). Put plainly: Solid phase integrin αVβ6 binding assay. The following applies: inhibition of recombinant TGFβ1 LAP binding to coated integrin, IC50 presented in four ranges, read-out: αvβ6 Inhibition IC50 (nM) - range. The gist of the method:
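Plates coated with recombinant human αVβ6 (2 μg/mL) and blocked; compounds competed with TGFβ1 LAP (0.67 μg/mL) in Mn2+ (0.5 mM)/BSA/sucrose TBS for 2 h at 25° C. Bound LAP detected by biotin anti-LAP and peroxidase-streptavidin; IC50 by four-parameter logistic fit.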
For the compound `O=C(O)[C@H](CCN(CCCCc1ccc2c(n1)NCCC2)CCOc1ccccn1)Nc1ncnc2ccccc12` [Compound 49, (S)-4-((2-(pyridin-2-yloxy)ethyl) (4-(5,6,7,8-tetrahydro-1,8-naphthyridin-2-yl)butyl)amino)-2-(quinazolin-4-ylamino) butanoic Acid], the IC50 – broadly, the concentration that inhibits the measured activity by half – was less than 50 nM.

With `O=C(O)[C@H](CCN(CCCCc1ccc2c(n1)NCCC2)CCOCC(F)F)Nc1ncnc2ccccc12` [Compound 50, (S)-4-((2-(2,2-difluoroethoxy)ethyl) (4-(5,6,7,8-tetrahydro-1,8-naphthyridin-2-yl)butyl)amino)-2-(quinazolin-4-ylamino) butanoic Acid], the IC50 was less than 50 nM.

Regarding `O=C(O)[C@H](CCN(CCCCc1ccc2c(n1)NCCC2)CCOCC(F)(F)F)Nc1ncnc2cccnc12` [Compound 51, (S)-2-(pyrido[3,2-d]pyrimidin-4-ylamino)-4-((4-(5,6,7,8-tetrahydro-1,8-naphthyridin-2-yl)butyl) (2-(2,2,2-trifluoroethoxy)ethyl)amino) butanoic Acid], the IC50 is less than 50 nM.

Consider `Cc1ncccc1OCCN(CCCCc1ccc2c(n1)NCCC2)CC[C@H](Nc1ncnc2ccccc12)C(=O)O` [Compound 52, (S)-4-((2-((2-methylpyridin-3-yl)oxy)ethyl) (4-(5,6,7,8-tetrahydro-1,8-naphthyridin-2-yl)butyl)amino)-2-(quinazolin-4-ylamino) butanoic Acid], for which the IC50 is less than 50 nM.

As to `Cc1nc(N[C@@H](CCN(CCCCc2ccc3c(n2)NCCC3)CCOc2cccnc2C)C(=O)O)c2ccc(F)cc2n1` [Compound 53, (S)-2-((7-fluoro-2-methylquinazolin-4-yl)amino)-4-((2-((2-methylpyridin-3-yl)oxy)ethyl) (4-(5,6,7,8-tetrahydro-1,8-naphthyridin-2-yl)butyl)amino) butanoic Acid], the IC50 was less than 50 nM.

Take `Cc1ncccc1OCCN(CCCCc1ccc2c(n1)NCCC2)CC[C@H](Nc1ncnc2cccnc12)C(=O)O` [Compound 54, (S)-4-((2-((2-methylpyridin-3-yl)oxy)ethyl) (4-(5,6,7,8-tetrahydro-1,8-naphthyridin-2-yl)butyl)amino)-2-(pyrido[3,2-d]pyrimidin-4-ylamino) butanoic Acid]: the IC50 was less than 50 nM.

As for `CCOCCN(CCCCc1ccc2c(n1)NCCC2)CC[C@H](Nc1ncnc2ccccc12)C(=O)O` [Compound 55, (S)-4-((2-ethoxyethyl) (4-(5,6,7,8-tetrahydro-1,8-naphthyridin-2-yl)butyl)amino)-2-(quinazolin-4-ylamino) butanoic Acid], the IC50 is less than 50 nM.

Turning to `Cc1ccc(OCCN(CCCCc2ccc3c(n2)NCCC3)CC[C@H](Nc2nc(C)nc3cc(F)ccc23)C(=O)O)cn1` [Compound 56, (S)-2-((7-fluoro-2-methylquinazolin-4-yl)amino)-4-((2-((6-methylpyridin-3-yl)oxy)ethyl) (4-(5,6,7,8-tetrahydro-1,8-naphthyridin-2-yl)butyl)amino) butanoic Acid], the IC50 was less than 50 nM.

As to `Cc1ccc(OCCN(CCCCc2ccc3c(n2)NCCC3)CC[C@H](Nc2ncnc3cccnc23)C(=O)O)cn1` [Compound 57, (S)-4-((2-((6-methylpyridin-3-yl)oxy)ethyl) (4-(5,6,7,8-tetrahydro-1,8-naphthyridin-2-yl)butyl)amino)-2-(pyrido[3,2-d]pyrimidin-4-ylamino) butanoic Acid], the IC50 was less than 50 nM.

In the case of `O=C(O)[C@H](CCN(CCCCc1ccc2c(n1)NCCC2)CCOc1cncc(F)c1)Nc1ncnc2ccccc12` [Compound 58, (S)-4-((2-((5-fluoropyridin-3-yl)oxy)ethyl) (4-(5,6,7,8-tetrahydro-1,8-naphthyridin-2-yl)butyl)amino)-2-(quinazolin-4-ylamino) butanoic Acid], the IC50 is less than 50 nM.
